Reference: PMC11403612, “Preparation and Preclinical Characterization of a Simple Ester for Dual Exogenous Supply of Lactate and Beta-hydroxybutyrate” (Journal of Agricultural and Food Chemistry, 2024)

Tests used:
[1] = Microsomal stability of LaKe, human; assay type: in vitro ADME
Description: The in vitro stability of LaKe was evaluated following incubation in simulated gastric fluid (SGF), simulated intestinal fluid (SIF), fresh and frozen plasma (rats and humans, respectively), and the presence of hepatocytes (rats and humans) and liver microsomes (rats and humans). At the chosen time points, the mixtures were analyzed by LC-MS/MS to quantify the remaining LaKe and all assays included at least one control compound with known pharmacokinetic properties.
Hepatocyte stability of LaKe
Cells: Rat hepatocytes (BioreclamationIVT, M0005); Human hepatocytes (BioreclamationIVT, X008001) Thawing Medium: Williams’ Medium E containing 5% fetal bovine serum and 30% Percoll solution and other […]
Incubation Medium: Williams’ Medium E (no phenol red) containing 2 mM L-Glutamine and 25 mM HEPES.
Stop Solution: Acetonitrile containing 200 ng/mL tolbutamide and labetalol as internal standards.
Dilution Solution: Ultra-pure water.
Preparation of Quenching Plate: Transfer 125 μL of stop solution (acetonitrile containing 200 ng/mL tolbutamide and 200 ng/mL labetalol as internal standards) in a set of pre-labeled 96-well plates.
Cryopreserved cells were thawed, isolated and suspended in Incubation Medium, then diluted with pre-warmed Incubation Medium to 0.5 × 10^6 cells/mL. 198 μL of pre-warmed cell suspensions were added in 96-well plates. […]

[2] = Extended pharmacokinetics of LaKe in rats (LaKe, lactate, BHB plasma levels); assay type: in vivo, SD rats
Description: Animals (SD rats, both male and female, 7–9 weeks) were individually housed from 24 h before dosing until the end of the study. Food was withdrawn the night before initiation of study; following food withdrawal, animals were maintained on glucose water containing 5% w/v glucose and 1% saline to suppress endogenous ketone production throughout the study. Food was returned 8 h post-test article dosing. Animals were monitored for distress or notable changes in behavior during the study. The animals were euthanized by CO2 inhalation 2 h after the last sample collection time point.
Blood collection was performed by jugular vein cannulation of each animal and divided into two parts. About 10–15 μL of blood was used for the analysis of glucose by glucometer measurement. About 0.20 mL of blood was collected into prechilled commercial EDTA-K2 tubes containing 5 μL of the esterase inhibitor (100 mM PMSF in ethanol, 40 mg/mL NaF and 120 mg/mL […] in water = 5:95(v/v). All blood samples were placed on wet ice until centrifugation.
At least 100 μL plasma was collected respectively and transferred into polypropylene tubes with 400 mM TTFA (2-thenoyltrifluoroacetone) in ethanol (plasma:stabilizer = 100:5 (v:v)). The final concentration of TTFA in the plasma sample from each time point was approximately 20 mM. The samples were snap frozen over dry ice and kept at −60 °C or lower until LC-MS/MS analysis for 3-hydroxybutyl 2-hydroxypropanoate (LaKe), lactate, and β-hydroxybutyrate (BHB).
Calibration curves were constructed by linear regression of the peak area of the pure calibrant samples versus the nominal analyte concentrations and based on eight points. The Lac-Phe concentrations in rat plasma samples were derived from their peak area with reference to the calibration curve.
Extended pharmacokinetics of LaKe in rats – Detailed protocols for LC-MS/MS analyses 3-hydroxybutyl 2-hydroxypropanoate (LaKe): […]
3-hydroxybutyl 2-hydroxypropanoate (LaKe) was detected by SRM. […]

CC(O)CCOC(=O)C(C)O (centres unmarked) [LaKe, 3-hydroxybutyl 2-hydroxypropanoate]
LaKe remaining ([1]; human liver microsomes, absence of NADPH, after 60 min): 82%
turnover in liver microsomes ([1]; presence of NADPH): underwent turnover
concentration at 15 min ([2]; both sexes, SD, rat, plasma, oral, 1.3 g/kg, the lower dose, 15 min): 540 nM
concentration at 30 min ([2]; both sexes, SD, rat, plasma, oral, 1.3 g/kg, the lower dose, 30 min): 260 nM
maximum average plasma level of LaKe ([2]; maximum dose of 12 g/kg): 5 µM
